Source: patent US6750228B1, “Aromatic sulfone hydroxamic acid metalloprotease inhibitor” (priority 1997, dated 2004)
Structures can show the parent of a compound that is named as a salt. Where two headings read alike, the source gives them in different places.

Tests used:
Experiment in all cases: biochemical
MMP-2 = molecular target: T1, MMP-2 (Homo sapiens, UniProt P08253); settings: read-out: MMP-2 IC50
T1 construct: made in house; provided by Dr. Gregory Goldberg, Washington University
T1 sequence (P08253 110-660): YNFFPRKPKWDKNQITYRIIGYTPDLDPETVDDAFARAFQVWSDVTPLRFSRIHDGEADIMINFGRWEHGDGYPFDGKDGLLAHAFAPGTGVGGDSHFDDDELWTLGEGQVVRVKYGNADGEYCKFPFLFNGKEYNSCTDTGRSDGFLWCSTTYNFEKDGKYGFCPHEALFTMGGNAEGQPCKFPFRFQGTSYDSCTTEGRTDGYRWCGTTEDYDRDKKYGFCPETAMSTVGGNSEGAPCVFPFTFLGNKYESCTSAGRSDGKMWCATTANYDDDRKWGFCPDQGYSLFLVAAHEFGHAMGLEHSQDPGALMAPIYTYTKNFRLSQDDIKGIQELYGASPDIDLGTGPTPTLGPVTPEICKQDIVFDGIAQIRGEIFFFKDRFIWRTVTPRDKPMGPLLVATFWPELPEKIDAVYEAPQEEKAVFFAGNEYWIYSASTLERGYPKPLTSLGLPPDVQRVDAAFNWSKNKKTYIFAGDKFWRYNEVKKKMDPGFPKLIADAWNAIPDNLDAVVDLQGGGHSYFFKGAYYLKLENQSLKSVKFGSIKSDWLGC
How it was run: (§1)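 APMA- or trypsin-activated human MMPs (MMP-1 from transfected HT-1080 cells, MMP-2 from transfected cells) preincubated with inhibitor in 1% DMSO at room temperature, then 4 μM MCA-Pro-Leu-Gly-Leu-Dpa-Ala-Arg-NH2 added in Tris/NaCl/CaCl2 buffer pH 7.5. IC50 from fluorescence reduction versus inhibitor concentration.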

MMP-1 = molecular target: T2, MMP-1 (Homo sapiens, UniProt P03956); settings: read-out: MMP-1 IC50
T2 construct: made in house; host or cells: transfected HT-1080 cells (provided by Dr. Harold Welgus, Washington University)
T2 sequence (P03956 100-469): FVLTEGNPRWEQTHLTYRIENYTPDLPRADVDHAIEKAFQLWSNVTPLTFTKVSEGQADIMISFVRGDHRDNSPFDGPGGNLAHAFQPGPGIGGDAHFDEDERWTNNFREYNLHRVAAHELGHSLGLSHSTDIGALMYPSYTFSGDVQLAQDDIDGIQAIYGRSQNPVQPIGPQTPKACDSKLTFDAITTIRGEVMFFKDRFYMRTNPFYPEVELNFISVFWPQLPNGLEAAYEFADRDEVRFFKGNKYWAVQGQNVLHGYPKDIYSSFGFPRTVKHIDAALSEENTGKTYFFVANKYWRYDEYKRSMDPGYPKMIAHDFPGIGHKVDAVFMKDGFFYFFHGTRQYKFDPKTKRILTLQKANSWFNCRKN
How it was run: as §1

MMP-13 = molecular target: T3, MMP-13 (Homo sapiens, UniProt P45452); settings: read-out: MMP-13 IC50
T3 construct: made in house; host or cells: baculovirus / insect cells
How it was run: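 APMA- or trypsin-activated enzymes were preincubated with inhibitor for 5 min at room temperature, then the fluorogenic substrate MCA-Pro-Leu-Gly-Leu-Dpa-Ala-Arg-NH2 was added to a final 4 μM.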

[1] = recombinant human MMP-2, MCA peptide substrate 4 μM, pH 7.5, room temperature
[2] = recombinant human MMP-1, MCA peptide substrate 4 μM, pH 7.5, room temperature
[3] = recombinant human MMP-13, MCA peptide substrate 4 μM, pH 7.5, room temperature

Row | SMILES | IC50 (MMP-2; [1]) [nM] | IC50 (MMP-1; [2]) [nM] | IC50 (MMP-13; [3]) [nM] | IC50 (MMP-2) [nM] | IC50 (MMP-1) [nM] | IC50 (MMP-13) [nM]
1 | COCCN1CCC(C(=O)NO)(S(=O)(=O)c2ccc(N3CCC(C(=O)Nc4ccc(OC(F)(F)F)cc4)CC3)cc2)CC1 [Example 248, N-Hydroxy-1-(2-methoxyethyl)-4-[[4-[4-[[[4-(trifluoromethoxy)phenyl]amino]carbonyl]-1-piperidinyl]-phenyl]sulfonyl]-4-piperidinecarboxamide, Monohydrochloride] | 270 | > 10000 | 2.29 | – | – | –
2 | COCCN1CCC(C(=O)NO)(S(=O)(=O)c2ccc(N3CCC(C(=O)Nc4cccc(OC(F)(F)F)c4)CC3)cc2)CC1 [Example 249, N-Hydroxy-1-(2-methoxyethyl)-4-[[4-[4-[[[3-(trifluoromethoxy)phenyl]amino]carbonyl]-1-piperidinyl]phenyl]sulfonyl]-4-piperidinecarboxamide, Monohydrochloride] | 235 | > 10000 | 13 | – | – | –
3 | O=C(NO)C1(S(=O)(=O)c2ccc(Oc3ccc(OC(F)(F)F)cc3)cc2)CCN(CCn2ccnc2)CC1 [Example 261, N-Hydroxy-1-[2-(1H-imidazol-1-yl)ethyl]-4-[[4-[4-(trifluoromethoxy)phenoxy]phenyl]sulfonyl]-4-piperidinecarboxamide, Dihydrochloride] | < 0.1 | 3700 | < 0.1 | – | – | –
4 | COCCN1CCC(C(=O)NO)(S(=O)(=O)c2ccc(Oc3ccc(-n4cncn4)cc3)cc2)CC1 [Example 262, N-Hydroxy-1-(2-methoxyethyl)-4-[[4-[4-(1H-1,2,4-triazol-1-yl)phenoxy]phenyl]sulfonyl]-4-piperidinecarboxamide Trihydrochloride] | 0.9 | > 10000 | 1.5 | – | – | –
5 | O=C(NO)C1(S(=O)(=O)c2ccc(Oc3ccc(OC(F)(F)F)cc3)cc2)CCN(CCCN2CCOCC2)CC1 [Example 264, N-Hydroxy-1-[3-(4-morpholinyl)propyl]-4-[[4-[4-(trifluoromethoxy)phenoxy]phenyl]sulfonyl]-4-piperidinecarboxamide Dihydrochloride] | < 0.1 | 4500 | 0.2 | – | – | –
6 | CS(=O)(=O)N1CCC(C(=O)NO)(S(=O)(=O)c2ccc(Oc3ccc(OC(F)(F)F)cc3)cc2)CC1 [Example 273, N-Hydroxy-1-(methylsulfonyl)-4-[[4-[4-sulfonyl]-(trifluoromethoxy)phenoxy]phenyl]-4-piperidinecarboxamide] | 0.1 | > 10000 | 0.3 | – | – | –
7 | CC1CC(C)CN(C(=O)C2CCN(c3ccc(S(=O)(=O)C4(C(=O)NO)CCN(C(=O)OCC5c6ccccc6-c6ccccc65)CC4)cc3)CC2)C1 (stereo not drawn) [Example 274] | – | – | – | > 10000 | > 10000 | 160
8 | C[C@H]1C[C@H](C)CN(C(=O)C2CCN(c3ccc(S(=O)(=O)C4(C(=O)NO)CCN(C(=O)CCl)CC4)cc3)CC2)C1 [Example 275] | – | – | – | > 10000 | > 10000 | 70
9 | C[C@@H]1C[C@H](C)CN(C(=O)C2CCN(c3ccc(S(=O)(=O)C4(C(=O)NO)CCN(C(=O)CCl)CC4)cc3)CC2)C1 [Example 276] | > 10000 | > 10000 | 37.3 | – | – | –
10 | CCNCC(=O)N1CCC(C(=O)NO)(S(=O)(=O)c2ccc(N3CCC(C(=O)N4CC(C)CC(C)C4)CC3)cc2)CC1 (stereo not drawn) [Example 277] | > 10000 | > 10000 | 70 | – | – | –
11 | CC1CC(C)CN(C(=O)C2CCN(c3ccc(S(=O)(=O)C4(C(=O)NO)CCN(C(=O)CNCc5cccnc5)CC4)cc3)CC2)C1 (stereo not drawn) [Example 278] | > 10000 | > 10000 | 19.3 | – | – | –
12 | CC1CC(C)CN(C(=O)C2CCN(c3ccc(S(=O)(=O)C4(C(=O)NO)CCN(C(=O)Cn5ccnc5)CC4)cc3)CC2)C1 (stereo not drawn) [Example 279] | 7300 | > 10000 | 20 | – | – | –
13 | CC1CC(C)CN(C(=O)C2CCN(c3ccc(S(=O)(=O)C4(C(=O)NO)CCN(C(=O)CNCCCO)CC4)cc3)CC2)C1 (stereo not drawn) [Example 280] | > 10000 | > 10000 | 90 | – | – | –
14 | CC1CC(C)CN(C(=O)C2CCN(c3ccc(S(=O)(=O)C4(C(=O)NO)CCN(C(=O)CNCCc5c[nH]cn5)CC4)cc3)CC2)C1 (stereo not drawn) [Example 281] | > 10000 | > 10000 | 105 | – | – | –
15 | CC1CC(C)CN(C(=O)C2CCN(c3ccc(S(=O)(=O)C4(C(=O)NO)CCN(C(=O)CNCc5cccs5)CC4)cc3)CC2)C1 (stereo not drawn) [Example 282] | 9000 | > 10000 | 14.8 | – | – | –
16 | CC1CC(C)CN(C(=O)C2CCN(c3ccc(S(=O)(=O)C4(C(=O)NO)CCN(C(=O)CN5CCOCC5)CC4)cc3)CC2)C1 (stereo not drawn) [Example 283] | > 10000 | > 10000 | 13.8 | – | – | –
17 | CC1CC(C)CN(C(=O)C2CCN(c3ccc(S(=O)(=O)C4(C(=O)NO)CCN(C(=O)CNCc5ccccn5)CC4)cc3)CC2)C1 (stereo not drawn) [Example 284] | > 10000 | > 10000 | 130 | – | – | –
18 | CC1CC(C)CN(C(=O)C2CCN(c3ccc(S(=O)(=O)C4(C(=O)NO)CCN(C(=O)CNCc5ccncc5)CC4)cc3)CC2)C1 (stereo not drawn) [Example 285] | 9000 | > 10000 | 19.3 | – | – | –
19 | CC1CC(C)CN(C(=O)C2CCN(c3ccc(S(=O)(=O)C4(C(=O)NO)CCN(C(=O)CNCCO)CC4)cc3)CC2)C1 (stereo not drawn) [Example 286] | > 10000 | > 10000 | 60 | – | – | –
20 | CC1CC(C)CN(C(=O)C2CCN(c3ccc(S(=O)(=O)C4(C(=O)NO)CCN(C(=O)CN(C)CCN(C)C)CC4)cc3)CC2)C1 (stereo not drawn) [Example 287] | > 10000 | > 10000 | 150 | – | – | –
21 | CC1CC(C)CN(C(=O)C2CCN(c3ccc(S(=O)(=O)C4(C(=O)NO)CCN(C(=O)CN5CCN(C)CC5)CC4)cc3)CC2)C1 (stereo not drawn) [Example 288] | > 10000 | > 10000 | 35 | – | – | –
22 | CC1CC(C)CN(C(=O)C2CCN(c3ccc(S(=O)(=O)C4(C(=O)NO)CCN(C(=O)CNCCN(C)C)CC4)cc3)CC2)C1 (stereo not drawn) [Example 289] | > 10000 | > 10000 | 50 | – | – | –
23 | CC1CC(C)CN(C(=O)C2CCN(c3ccc(S(=O)(=O)C4(C(=O)NO)CCN(C(=O)CN5CCNCC5)CC4)cc3)CC2)C1 (stereo not drawn) [Example 290] | > 10000 | > 10000 | 50 | – | – | –
24 | CCCN(CC(=O)N1CCC(C(=O)NO)(S(=O)(=O)c2ccc(N3CCC(C(=O)N4CC(C)CC(C)C4)CC3)cc2)CC1)CC1CC1 (stereo not drawn) [Example 292] | > 10000 | > 10000 | 100 | – | – | –
25 | CC1CC(C)CN(C(=O)C2CCN(c3ccc(S(=O)(=O)C4(C(=O)NO)CCN(C(=O)CNCC5CC5)CC4)cc3)CC2)C1 (stereo not drawn) [Example 293] | > 10000 | > 10000 | 63.1 | – | – | –
26 | CC1CC(C)CN(C(=O)C2CCN(c3ccc(S(=O)(=O)C4(C(=O)NO)CCN(C(=O)CN(C)C)CC4)cc3)CC2)C1 (stereo not drawn) [Example 294] | > 10000 | > 1000 | 59.1 | – | – | –
27 | CCN(CC)CC(=O)N1CCC(C(=O)NO)(S(=O)(=O)c2ccc(N3CCC(C(=O)N4CC(C)CC(C)C4)CC3)cc2)CC1 (stereo not drawn) [Example 295] | > 10000 | > 10000 | 50 | – | – | –
28 | CC1CC(C)CN(C(=O)C2CCN(c3ccc(S(=O)(=O)C4(C(=O)NO)CCN(C(=O)CN5CCCCC5)CC4)cc3)CC2)C1 (stereo not drawn) [Example 296] | > 10000 | > 10000 | 50 | – | – | –
29 | CC1CC(C)CN(C(=O)C2CCN(c3ccc(S(=O)(=O)C4(C(=O)NO)CCN(C(=O)CN5CCCC5CO)CC4)cc3)CC2)C1 (stereo not drawn) [Example 297] | > 10000 | > 10000 | 34.9 | – | – | –
30 | CC1CC(C)CN(C(=O)C2CCN(c3ccc(S(=O)(=O)C4(C(=O)NO)CCN(C(=O)CN5CCCC5)CC4)cc3)CC2)C1 (stereo not drawn) [Example 298] | > 10000 | > 10000 | 40 | – | – | –
